From patent US20080226718A1, “Indole and Azaindole Derivatives For the Treatment of Inflammatory and Autoimmune Diseases” (Brane Discovery S.r.l, priority 2005, published 2008)

Tests used:
[1] = tested on: encephalitogenic lymphocytes; assay: Chemokine-induced adhesion of murine encephalitogenic T cells to ICAM-1; type: cell-based, SJL mice; details: ICAM-1; for Chemokine-induced Adhesion in encephalitogenic lymphocytes, Mean counts ± S.D., in presence of MIP3-β stimulation: 1 μM CCL19 (MIP-3beta)
Experimental: (§1) Adhesion was performed on purified integrin ligands and was evaluated as reported in Constantin G. et al., Immunity, 16, 759-769, 2000. Briefly, primary naïve lymphocytes, polymorphonuclear neutrophils (PMNs) or monocytes were isolated form healthy donors. In other experiments, murine autoreactive T cells were obtained from SJL mice immunized with PLP139-151 as described (Piccio L. et al., J. Immunol, 168, 1940-1949, 2002). Cells were resuspended at 4×10^6/ml in PBS, CaCl2, MgCl2 1 mM, 10% FCS, pH 7.2. Adhesion assays were performed on eighteen well glass slides coated overnight at 4° C. with ligands for CR3 (fibrinogen) or LFA-1 (ICAM-1). 20 μl of cell suspension were added to the wells and stimulated at 37° C. with 5 μl of agonists prior to washing, fixation and computer-assisted enumeration of bound cells.
(§2) Integrin activation was measured as induction of rapid adhesion triggered by the classical chemoattractant N-formyl-L-methionyl-L-leucyl-phenylalanine (fMLP) (100 nM) or by the CC chemokine MIP3β (CCL19, 1 μM). PMNs and monocytes were triggered to adhere to fibrinogen (CR3 ligand); naive human lymphocytes or murine encephalitogenic T cells were triggered to adhere to ICAM-1 (LFA-1 ligand). Triggered adhesion was evaluated after 2 min of stimulation under static conditions. The cells were pretreated at 37° C. for 30-60 min with the indicated concentrations of the test compound. Results are expressed as percentage of inhibition over control (=100%) and are the mean of three experiments in the case of human leukocytes. Results are expressed as mean counts and are the mean counts ±S.D of three experiments and are the mean of three experiments in the case of murine encephalitogenic lymphocytes.
Chemokines trigger rapid arrest of lymphocytes in blood vessels through pertussis toxin-sensitive G protein coupled receptors. Rapid adhesion to purified ICAM-1 was measured in in vitro adhesion assays using control/untreated cells and lymphocytes treated with concentration between 5-50 μM for 1 h. Autoreactive lymphocytes were then stimulated with 1 μM CCL19 (MIP-3beta) for 3 min. […] These compounds were already efficient in blocking adhesion using a concentration of 5 μM for the cell treatment.

lymphocytes [2] = assay: Chemotaxis assay, lymphocytes (MIP-3β); type: cell-based; details: Homo sapiens, Lymphocyte, MIP-3β 100 nM, 4 h; for inhibition at 10 µM: [cpd] 10 μM, read-out: Inhibition of Chemotaxis (%) Lymphocytes (MIP3-β); for inhibition at 25 µM: [cpd] 25 μM; for inhibition at 25 µM / inhibition at 50 µM: read-out: Inhibition of Chemotaxis (%) Lymphocytes (MIP3-β) (converted); for inhibition at 50 µM: [cpd] 50 μM
Experimental: (§3) PMNs and monocytes migration was assessed using 1 or 3-μm pore size transwells (Bio-Coat Becton-Dickinson), while lymphocytes by using 5-elm pore size transwells.
(§4) Cells were in RPMI1640, containing 10% heat-inactivated Fetal Calf Serum (FCS) and 20 mM HEPES, pH 7.3, at 2×10^6/ml. 100 μl of cell suspension were added to the top well, and 600 μl of medium, containing chemoattractants and test compound, were added to the bottom well. Migration was evaluated after 2 h for PMNs and monocytes and after 4 h for lymphocytes. fMLP 10 nM (PMNs and monocytes) and MIP-3β 100 nM (lymphocytes) were utilized as chemoattractants. After fixation with 1.5% glutaraldehyde, migrated cells were counted by fluorescence-activated celli sorting using polystyrene beads (Polyscience) as an internal standard (Campbell J. J. et al. J. Cell. Biol. 134, 255-266, 1996; Laudanna C. et al. J. Biol. Chem. 273,46, 30306-30315, 1998).
(§5) Results are expressed as percentage of inhibition over control (=100%), and are the mean of three experiments.

lymphocytes [3] = assay: Chemokine-induced rapid adhesion of lymphocytes to ICAM-1 (MIP3β); type: cell-based; details: Homo sapiens, Lymphocyte, MIP3β 1 μM; for inhibition at 10 µM: [cpd] 10 μM, read-out: Inhibition of Adhesion (%) Lymphocytes (MIP3-β); for inhibition at 25 µM: [cpd] 25 μM; for inhibition at 25 µM / inhibition at 50 µM: read-out: Inhibition of Adhesion (%) Lymphocytes (MIP3-β) (converted); for inhibition at 50 µM: [cpd] 50 μM
Experimental: as §1, §2
(§6) Integrin activation was measured as induction of rapid adhesion triggered by the “classical” chemoattractant fMLP (100 nM) or by the CC chemokine MIP3β (CCL19, 1 μM). PMNs were triggered to adhere to fibrinogen (CR3 ligand); lymphocytes were triggered to adhere to ICAM-1 (LFA-1 ligand).

[4] = tested on: encephalitogenic lymphocytes; assay: Spontaneous adhesion of encephalitogenic T cells on purified ICAM-1; type: cell-based, SJL mice; details: Mus musculus, Lymphocyte, 1 h; for inhibition at 5 µM: [cpd] 5 μM, read-out: Inhibition of Spontaneous Adhesion in encephalitogenic lymphocytes (% of control/non-treated cells) ICAM-1; for inhibition at 10 µM: [cpd] 10 μM; for inhibition at 10 µM / inhibition at 50 µM: read-out: Inhibition of Spontaneous Adhesion in encephalitogenic lymphocytes (% of control/non-treated cells) ICAM-1 (converted); for inhibition at 50 µM: [cpd] 50 μM
Experimental: Spontaneous adhesion of encephalitogenic lymphocytes was measured in adhesion assays on purified ICAM-1 and VCAM-1 as previously described (Constantin G. et al., J. Immunol. 162, 1144-1149, 1999). Autoreactive T cells were obtained from SJL mice immunized with PLP139-151 as described (Piccio L. et al., J. Immunol. 168, 1940-1949, 2002). Lymphocytes were treated with test compound at concentrations between 5-100 μM for 1 h, while control/untreated cells were treated with vehicle (DMSO). Results are expressed as percentage of inhibition over control (=100%) ±S.D and are the mean of three-four experiments.
ICAM-1 and VCAM-1 are adhesion molecules from the family of immunoglobulins and control the migration of lymphocytes through the endothelium during inflammatory responses. Encephalitogenic T cells are activated lymphocytes displaying spontaneous adhesion on ICAM-1 and VCAM-1 and have increased migration capacities in inflammation sites. Spontaneous adhesion of encephalitogenic lymphocytes was measured in adhesion assays on purified ICAM-1 and VCAM-1 as described in the method.

monocytes [5] = assay: Chemokine-induced rapid adhesion of monocytes to fibrinogen (fMLP); type: cell-based; details: Homo sapiens, Monocyte, fMLP 100 nM; for inhibition at 10 µM: [cpd] 10 μM; for inhibition at 25 µM: [cpd] 25 μM; for inhibition at 50 µM: [cpd] 50 μM
Experimental: as §1, §2

monocytes [6] = assay: Chemotaxis assay, monocytes (fMLP); type: cell-based; details: Homo sapiens, Monocyte, fMLP 10 nM, 2 h; for inhibition at 10 µM: [cpd] 10 μM; for inhibition at 25 µM: [cpd] 25 μM; for inhibition at 50 µM: [cpd] 50 μM
Experimental: as §3, §4, §5

PMNs [7] = assay: Chemotaxis assay, PMNs (fMLP); type: cell-based; details: Homo sapiens, fMLP 10 nM, 2 h; for inhibition at 10 µM: [cpd] 10 μM; for inhibition at 25 µM: [cpd] 25 μM; for inhibition at 50 µM: [cpd] 50 μM
Experimental: as §3, §4, §5

PMNs [8] = assay: Chemokine-induced rapid adhesion of PMNs to fibrinogen (fMLP); type: cell-based; details: Homo sapiens, 2 min, fMLP 100 nM; for inhibition at 10 µM: [cpd] 10 μM; for inhibition at 25 µM: [cpd] 25 μM; for inhibition at 50 µM: [cpd] 50 μM
Experimental: as §1, §2, §6

| SMILES | inhibition at 10 µM (lymphocytes [2]) | inhibition at 25 µM (lymphocytes [2]) | inhibition at 50 µM (lymphocytes [2]) | inhibition at 10 µM (lymphocytes [3]) | inhibition at 25 µM (lymphocytes [3]) | inhibition at 50 µM (lymphocytes [3]) | inhibition at 5 µM [4] | inhibition at 10 µM [4] | inhibition at 50 µM [4] | inhibition at 10 µM (monocytes [5]) | inhibition at 25 µM (monocytes [5]) | inhibition at 50 µM (monocytes [5]) | inhibition at 10 µM (monocytes [6]) | inhibition at 25 µM (monocytes [6]) | inhibition at 50 µM (monocytes [6]) | inhibition at 10 µM (PMNs [7]) | inhibition at 25 µM (PMNs [7]) | inhibition at 50 µM (PMNs [7]) | inhibition at 10 µM (PMNs [8]) | inhibition at 25 µM (PMNs [8]) | other results |
| --- | --- | --- | --- | --- | --- | --- | --- | --- | --- | --- | --- | --- | --- | --- | --- | --- | --- | --- | --- | --- | --- |
| COc1ccc(-c2c(C(N)=O)[nH]c3cc(OC)c(OC)cc23)cc1 [Example 14] | – | – | – | – | – | – | – | – | – | – | – | – | – | – | – | – | – | – | – | – | Chemokine-induced Adhesion in encephalitogenic lymphocytes, Mean counts ± S.D., in presence of MIP3-β stimulation ([1]; [cpd] 1 μM): 120.3 ± 9.8; Adhesion in encephalitogenic lymphocytes, Mean counts ± S.D., in absence of MIP3-β stimulation ([1]; [cpd] 1 μM): 67.6 ± 2.0; Chemokine-induced Adhesion in encephalitogenic lymphocytes, Mean counts ± S.D., in presence of MIP3-β stimulation ([1]; [cpd] 5 μM): 101.2 ± 6.1; Adhesion in encephalitogenic lymphocytes, Mean counts ± S.D., in absence of MIP3-β stimulation ([1]; [cpd] 5 μM): 41.8 ± 4.2; Chemokine-induced Adhesion in encephalitogenic lymphocytes, Mean counts ± S.D., in presence of MIP3-β stimulation ([1]; [cpd] 50 μM): 56.8 ± 2.2; Adhesion in encephalitogenic lymphocytes, Mean counts ± S.D., in absence of MIP3-β stimulation ([1]; [cpd] 50 μM): 20.9 ± 11.7 |
| COc1ccc(-c2c(C#N)n(CCN(C)C)c3cc(OC)c(OC)cc23)cc1 [Example 18] | 51% | 86.7% | 92.3% | 66.3% | 91.4% | 95.1% | 28.7% | 36.8% | 96.9% | 7.8% | 14.7% | 31.2% | 17.3% | 62.1% | 84.5% | 52.3% | 77.6% | 91.2% | 2.2% | 10.4% | inhibition at 50 µM (PMNs [8]): 26.7% |
| COc1ccc(-c2c3n(c4cc(OC)c(OC)cc24)CC(=O)NC3)cc1 [Example 66] | 57.5% | 89.6% | 87.7% | 61.3% | 68.1% | 79% | 15% | 33.7% | 92.9% | 11.3% | 28.7% | 40.4% | 43.9% | 74.4% | 92.7% | 50% | 77.8% | 92.6% | 6.1% | 11.5% | inhibition at 50 µM (PMNs [8]): 17.2% |
| COc1ccc(-c2c3n(c4cc(OC)c(OC)cc24)CCOC3)cc1 [Example 76] | – | – | – | – | – | – | – | – | – | – | – | – | – | – | – | – | – | – | – | – | inhibition at 100 µM (PMNs [8]; [cpd] 100 μM): 66%; Chemokine-induced Adhesion in encephalitogenic lymphocytes, Mean counts ± S.D., in presence of MIP3-β stimulation ([1]; [cpd] 1 μM): 102.9 ± 2.9; Adhesion in encephalitogenic lymphocytes, Mean counts ± S.D., in absence of MIP3-β stimulation ([1]; [cpd] 1 μM): 36.9 ± 4.0; Chemokine-induced Adhesion in encephalitogenic lymphocytes, Mean counts ± S.D., in presence of MIP3-β stimulation ([1]; [cpd] 5 μM): 87.7 ± 12.0; Adhesion in encephalitogenic lymphocytes, Mean counts ± S.D., in absence of MIP3-β stimulation ([1]; [cpd] 5 μM): 28.3 ± 8.9; Chemokine-induced Adhesion in encephalitogenic lymphocytes, Mean counts ± S.D., in presence of MIP3-β stimulation ([1]; [cpd] 50 μM): 66.6 ± 1.8; Adhesion in encephalitogenic lymphocytes, Mean counts ± S.D., in absence of MIP3-β stimulation ([1]; [cpd] 50 μM): 23.0 ± 1.9 |
| COc1cc2[nH]c(C(=O)N(C)C)c(-c3ccccc3)c2cc1OC [Example 46] | 19.9% | 45% | 85% | 34.1% | 58.8% | 67.1% | 15.8% | 25.9% | 96.3% | 12.6% | 32.2% | 37.6% | 48.2% | 63.8% | 89.9% | 65.3% | 74.5% | 93.1% | 16.7% | 28.7% | inhibition at 50 µM (PMNs [8]): 38.4% |
| COc1ccc(-c2c(-c3nnc(C)o3)[nH]c3cc(OC)c(OC)cc23)cc1 [Example 77] | 13.6% | 25.4% | 33.8% | 15.9% | 20.7% | 30.5% | 25.9% | 34.8% | 95.9% | 3.5% | 33.4% | 50.8% | 40.6% | 48.9% | 59% | 51.3% | 49.4% | 59.5% | 17.4% | 24.7% | inhibition at 50 µM (PMNs [8]): 30.5% |
| COc1cc2[nH]c(C(=O)N3CCOCC3)c(-c3ccccc3)c2cc1OC [Example 47] | 44.3% | 66.6% | 88.2% | 43.8% | 52.5% | 77.5% | 7.1% | 17.2% | 93.4% | 8.7% | 14.4% | 22.4% | 56.5% | 82.4% | 93.9% | 75.4% | 87.5% | 96.1% | 16.6% | 37.1% | inhibition at 50 µM (PMNs [8]): 45.4% |
